Patent publication US20110065760A1, “COMPOUNDS FOR THE INHIBITION OF ROTAMASES AND USE THEREOF” (Jerini AG, priority 2002, published 2011)

How the values were obtained:
hFKBP12 = hFKBP12 (Homo sapiens, UniProt P62942); experiment: protease-coupled PPIase assay, hFKBP12; format: biochemical; conditions: 20 nM hFKBP12, substrate Suc-Ala-Phe-Pro-Phe-pNA, chymotrypsin, pH 7.8, 6° C.; read-out: IC50 class, Target T-2 (hFKBP12)
hCyp18 = hCyp18 (Homo sapiens, UniProt P62937); experiment: protease-coupled PPIase assay, hCyp18; format: biochemical; conditions: 10 nM hCyp18, substrate Suc-Ala-Phe-Pro-Phe-pNA, chymotrypsin, pH 7.8, 6° C.; read-out: IC50 class, Target T-3 (hCyp18)
LpCyp18 = LpCyp18 (Legionella pneumophila, UniProt Q5ZRZ4); experiment: biochemical; conditions: IC50 class, Target T-4 (LpCyp18)
EcParvulin = EcParvulin (Escherichia coli, UniProt P0A9L5); experiment: protease-coupled PPIase assay, EcParvulin; format: biochemical
cathepsin B = cathepsin B (Homo sapiens, UniProt P07858); experiment: cathepsin B assay; format: biochemical; conditions: 0.2 μg/ml cathepsin B, 2 mM Z-Arg-Arg-pNA, pH 5.8, 30° C., 30 min incubation; read-out: IC50 class, Target T-8 (Cathepsin)
Description: In order to investigate the impact of some of the inventive compounds on the activity of key proteases the following assay was performed: Protease activities were measured spectrophotometrically at 30° C. according to Schomburg and Salzmann (Schomburg, B.; Salzmann M. GBF: Enzyme Handbook. Springer Verlag, Berlin Heidelberg, 1991) and Bergmeyer et al. (Bergmeyer, H. U.; Bergmeyer, J.; Graβl, M. Methods of Enzymatic Analysis, Vol. V Enzymes 3: Peptides, Proteinases and Their Inhibitors. pp 55-371, VCH, Weinheim, 1988). The release of 4-nitroaniline was determined at 390 nm with a Spectramax Plus UV/Vis spectrophotometer (Molecular Devices). The cathepsin B assay was performed in a reaction mixture containing 0.2 μg/ml cathepsin B, 2 mM Z-Arg-Arg-pNA in 88 mM KH2PO4, 12 mM Na2HPO4, 1.33 mM EDTA, 0.03% Brij 35 (pH 5.8). The trypsin assay was carried out in a reaction mixture containing 0.1 μg/ml trypsin and 120 μM Ac-Ala-Ala-Ser(PO3H2)-Pro-Arg-pNA in 35 mM HEPES (pH 7.8) and the papain assay in a mixture consisting of 16 μg/ml papain and 2 mM Bz-DL-Arg-pNA in 10 mM Na2HPO4, 2 mM L-Cys, 5 mM EDTA (pH 6.5). In general, reactions were started by addition of peptide substrate after a 30 min incubation of 1-100 μM effector with given concentrations of enzyme.

[1] = WST-1 cytotoxicity assay, HL-60; format: cell-based; conditions: human, HL-60 cells (acute myeloid leukemia); WST-1, 48 h incubation; read-out: EC50 class, cytotoxic effect, CL-1 (HL-60)
Method in brief: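 Human tumour cell lines in culture were exposed to compounds at 37° C for 48 h, then given WST-1. Viability was read as formazan absorbance at (450 vs. 620) nm.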

[2] = WST-1 cytotoxicity assay, HeLa; format: cell-based; conditions: human, HeLa cells (cervix carcinoma); WST-1, 48 h incubation; read-out: EC50 class, cytotoxic effect, CL-2 (HeLa)
Description: (§1) For this cytotoxic evaluation of the compounds the commercial available WST-1 assay (Roche) was used according to the manufacturer's instructions. The assay is based on the cleavage of the tetrazolium salt WST-1 by mitochondrial dehydrogenases found in viable cells. In general compounds were added to cells cultured in 96-well plates at 37° C. After 48 h of incubation 10 μl of WST-1 solution was added. The formazan dye was analyzed with an ELISA plate reader at (450 vs. 620) nm. CL-1: human acute myeloid leukemia, HL-60 CL-2: human cervix carcinoma, HeLa CL-3: human prostate carcinoma, PC-3 CL-4: human colon adenocarcinoma, Caco-2 CL-5: human breast adenocarcinoma, MCF-7

[3] = WST-1 cytotoxicity assay, PC-3; format: cell-based; conditions: human, PC-3 cells (prostate carcinoma); WST-1, 48 h incubation; read-out: EC50 class, cytotoxic effect, CL-3 (PC-3)
Description: as §1

[4] = WST-1 cytotoxicity assay, Caco-2; format: cell-based; conditions: human, Caco-2 cells (colon adenocarcinoma); WST-1, 48 h incubation; read-out: EC50 class, cytotoxic effect, CL-4 (Caco-2)
Description: as §1

[5] = WST-1 cytotoxicity assay, MCF-7; format: cell-based; conditions: human, MCF-7 cells (breast adenocarcinoma); WST-1, 48 h incubation; read-out: EC50 class, cytotoxic effect, CL-5 (MCF-7)
Description: as §1

Hela cells = experiment: DAPI staining; format: cell-based, human; conditions: FIG. 3
Description: Hela cells grown on poly-L-Lys-coated coverslips were fixed with 2% paraformaldehyde/MeOH.
Cellular DNA was stained with DAPI staining buffer (100 mM Tris (pH 7.4), 150 mM NaCl, 1 mM CaCl2, 0.5 mM MgCl2, 0.1% nonidet P-40, 1 μg/ml DAPI (Molecular Probes)). All the steps were performed at room temperature, and cells were washed two times with PBS after each step. Finally, cells were mounted in 80% glycerol/PBS.

[6] = system: tumor cell lines (HL-60, HeLa, PC-3, Caco-2, MCF-7); experiment: WST-1 cytotoxicity assay, tumor cell lines (panel statement); format: cell-based, human; conditions: WST-1, 48 h; table 4
Description: as §1

[7] = system: cyclin D1 in MCF-7 and HeLa cells; experiment: Cyclin D1 down regulation (western blot marker analysis); format: cell-based, human
Description: MCF-7 (5×10^5 cells/well) and HeLa cells (1.5×10^5 cells/well) were seeded in 6-well plates and incubated at 37° C. over night. Compounds or DMSO (final solvent concentration 0.1%) were added to the cells and incubated for different times as indicated. Subsequently, cells were lysed in RIPA buffer for 30 min on ice and centrifuged for 20 min at 4° C. After addition of electrophoresis sample buffer (4×) and 50 mM DTT to the supernatant, samples were boiled for 4 min at 95° C. Samples (equivalent to 2×10^5 cells/well) were run on a 15% SDS gel followed by blotting onto PVDF membrane.
The membrane was blocked for 1 h in 10 mM Tris (pH 7.5), 100 mM NaCl, 0.1% Tween-20 and 5% non-fat dry milk (blocking buffer) and incubated for 1 h with mouse anti-hCyclin D1 monoclonal antibody (clone DCS-6, BD Biosciences) diluted to 1 μg/ml in blocking buffer. Blots were washed 3×10 min with 10 mM Tris (pH 7.5), 100 mM NaCl, 0.1% Tween-20 (washing buffer) and incubated with 0.7 μg/ml peroxidase-conjugated sheep anti-mouse IgG (Sigma) in blocking buffer for 1 h. After washing 3×10 min with washing buffer, the plot was developed with the ECL+ detection kit (Amersham Biosciences).

Chain of hFKBP12 (P62942 whole entry): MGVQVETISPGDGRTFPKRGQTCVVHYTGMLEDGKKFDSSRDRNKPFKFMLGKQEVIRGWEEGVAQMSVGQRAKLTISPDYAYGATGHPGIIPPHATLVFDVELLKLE
Chain of LpCyp18 (Q5ZRZ4 1-164): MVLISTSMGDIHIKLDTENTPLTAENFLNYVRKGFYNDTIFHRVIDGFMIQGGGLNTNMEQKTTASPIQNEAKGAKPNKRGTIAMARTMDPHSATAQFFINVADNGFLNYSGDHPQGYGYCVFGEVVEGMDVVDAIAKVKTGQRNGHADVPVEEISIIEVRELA
Chain of hCyp18 (P62937 whole entry): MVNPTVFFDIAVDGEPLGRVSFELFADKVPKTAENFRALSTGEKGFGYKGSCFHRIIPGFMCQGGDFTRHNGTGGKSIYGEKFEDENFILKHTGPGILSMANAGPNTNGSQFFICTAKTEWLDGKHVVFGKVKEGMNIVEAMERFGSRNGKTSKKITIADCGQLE
Chain of EcParvulin (P0A9L5 whole entry): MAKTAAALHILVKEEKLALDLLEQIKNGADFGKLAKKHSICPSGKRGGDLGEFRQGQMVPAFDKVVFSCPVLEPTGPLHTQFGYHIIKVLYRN

Q: Which IC50 (hFKBP12) does the source give for `Cc1c(Cl)cc(NC(=O)NC(C)(C)CC(C)(C)C)c(O)c1Cl` [Compound 102] here?
A: > 100 µM

Q: And the IC50 (hCyp18)?
A: 10 to 50 µM

Q: And the IC50 (LpCyp18)?
A: 10 to 50 µM

Q: What about the IC50 (EcParvulin) of the same compound?
A: 1 to 10 µM

Q: What about the IC50 (cathepsin B) of the same compound?
A: 50 to 100 µM

Q: What about the EC50 at 48 h [1] of the same compound?
A: < 10 µM

Q: What about the EC50 at 48 h [2] of the same compound?
A: < 10 µM

Q: What about the EC50 at 48 h [3] of the same compound?
A: < 10 µM

Q: And the EC50 at 48 h [4]?
A: < 10 µM

Q: What about the EC50 at 48 h [5] of the same compound?
A: < 10 µM

Q: And the “induction of apoptosis (DAPI staining, fluorescence microscopy)” value (Hela cells)?
A: induce apoptosis

Q: And the “cytotoxic effect on the tumor cell lines tested” value [6]?
A: particular relevance

Q: And the “cyclin D1 down regulation” value [7]?
A: particular relevance
